Patent EP0638566B1, “5-Aminoflavone derivatives, their preparation and their use as antibacterial, anti-estrogenic and/or antitumor agent” (KYOWA HAKKO KOGYO CO., LTD., priority 1993, dated 1995)
In brackets after ≈: the same amount, converted by molar mass. Structures can show the parent of a compound that is named as a salt. Where two headings read alike, the source gives them in different places. Values belong to the compound of their own block, whether it stands above or below them.

Columns and labels:
[1] = test system: Bacillus subtilis #10107; experiment: Antibacterial activity, agar dilution method; assay type: cell-based
Experimental: Antibacterial activity of compound (I) against Bacillus subtilis #10107 [Minimum Inhibition Concentration(MIC; µg/ml)] is shown in Table 6. Minimum Inhibition Concentration was determined by agar dilution method at pH 7.0.

[2] = test system: Human mammary cancer MCF-7 cell; experiment: Human mammary cancer MCF-7 cell growth inhibition test (neutral red); assay type: cell-based
Experimental: Human mammary cancer MCF-7 cell growth inhibition test
Each 0.1 ml of MCF-7 cells which had been prepared to 5 x 10^4/ml using a medium (referred to as Medium B hereinafter) prepared by adding 10% bovine fetal serum, 10^-8M estradiol (manufactured by Sigma), 100 units/ml penicillin and 100 µg/ml streptomycin to RPMI1640 medium was distributed in each well of 96 well-microtiter plate. […] Supernatant was removed, each 0.1 ml of Medium B containing 0.02% neutral red was added to the residue, the mixture was cultured at 37 °C for 1 hour in a CO2 gas incubator and the cells were stained by neutral red dye. Supernatant was removed and the residue was washed once with a physiological saline. Then, the dye was extracted with 0.001N hydrochloric acid/30% ethanol and the absorbance at 550 nm was determined with a microplatereader.

[3] = test system: estrogen-dependent human mammary cancer MCF-7; experiment: Antitumor effects against MCF-7 tumor transplanted in nude mice; assay type: in vivo, female BALB/c-nu/nu mice; details: Mus musculus, MCF7, 5 days per week for two weeks, read-out: T/C; for response vs control in vivo at 50 mg/kg: dose 50 mg/kg oral
From the text: Antitumor effects against estrogen-dependent human mammary cancer MCF-7
The tumor fragment (2mm x 2mm x 2mm) of human hormone dependent mammary cancer MCF-7 was transplanted subcutaneously in the flank of female BALB/c-nu/nu mice (Nihon Crea), 7 to 9 weeks age. […] 3 to 4 Weeks after transplantation, mice of the tumor volume of 25 to 200 mm^3 were selected, and the test compounds were orally administered repeatedly to the groups (5 animals per group) for 5 days per a week, for total two weeks. In addition, estradiol propionate was administered again on the date of initial administration of the test compounds. Length and width of the tumor were determined every day, and the tumor volumes were calculated by means of ellipsoid approximation according to the following equation: […] [formula] The tumor volume at initial administration (Vo) and on the day of judgement (V) was calculated, and the tumor growth rate (V/Vo) was calculated. T/C value was obtained as the ratio of V/Vo value of treated group relative to that of control group.

[4] = test system: estrogen-dependent human mammary cancer Br-10; experiment: Antitumor effects against Br-10 tumor transplanted in nude mice; assay type: in vivo, female BALB/c-nu/nu mice; details: 5 days per week for two to four weeks
From the text: Antitumor effects against estrogen-dependent human mammary cancer Br-10
The tumor fragment (2mm x 2mm x 2mm) of human hormone dependent mammary cancer Br-10 was transplanted subcutaneously in the flank of female BALB/c-nu/nu mice (Nihon Crea), 7 to 9 weeks age. […] 3 to 4 Weeks after transplantation, mice the tumor volume of which increased to 30 to 150 mm^3 were selected, and the test compounds were orally administered repeatedly to the groups (5 animals per group) for 5 days per a week, for total two to four weeks. Estradiol propionate was additionally administered on the date of initial administration of the test compounds and 14 days after the administration. Length and breadth of the tumor were determined every day, and the tumor volumes were calculated by means of ellipsoid approximation according to the above equation. The tumor volume at initial administration (Vo) and on the day of judgement (V) was calculated, and the tumor growth rate (V/Vo) was calculated. T/C value was obtained as the ratio of V/Vo value of treated group relative to that of control group.

[5] = test system: uterus weight of immature mice; experiment: Effect against the increase in uterus weight of immature mice; assay type: in vivo, female BALB/c mice; details: for Weight of uterus: dose 5 mg/kg, oral, three days, uteri isolated after four days
Experimental: The effect against the increase in uterus weight of immature mice
Immature female BALB/c mice, 4 weeks age, were divided into two groups and 50 µg of estradiol was subcutaneously administered to the animals of one group in the chest. The test compounds were repeatedly administered orally to each group (8 animals per group) for three days since the date of estradiol administration. After four days, the uteri were isolated and the weight thereof was measured.
In Table 2, "estradiol (-)" represents an estradiol-untreated group and "estradiol (+)" represents an estradiol-treated group.

[6] = Minimum Inhibition Concentration, agar dilution method at pH 7.0, read-out: MIC
[7] = MCF7, MCF-7 cells, medium with 10^-8M estradiol, 72 hours, neutral red, absorbance at 550 nm, read-out: IC50

SMILES: Cc1c(F)c(NCCCN(C)C)c2c(=O)cc(-c3ccc(N)c(F)c3)oc2c1F [Compound 37, 2-(4-Amino-3-fluorophenyl)-5-[3-(dimethylamino)propylamino]-6,8-difluoro-7-methyl-4H-1-benzopyran-4-one]
MIC [1, 6]: 13 µg/mL (≈ 32.1 µM)

SMILES: Cc1c(F)c(N)c2c(=O)cc(-c3ccc(N)c(Cl)c3)oc2c1F [Compound 24, 5-Amino-2-(4-amino-3-chlorophenyl)-6,8-difluoro-7-methyl-4H-1-benzopyran-4-one]
IC50 [2, 7]: 92 nM

SMILES: CSc1c(F)c(N)c2c(=O)cc(-c3ccc(N)c(F)c3)oc2c1F [Compound 10, 5-Amino-2-(4-amino-3-fluorophenyl)-6,8-difluoro-7-methylthio-4H-1-benzopyran-4-one]
IC50 ([2]; MCF7, 72 h): 190 nM

SMILES: Nc1ccc(-c2cc(=O)c3c(N)c(F)c(N)c(F)c3o2)cc1F [Compound 16, 5,7-Diamino-2-(4-amino-3-fluorophenyl)-6,8-difluoro-4H-1-benzopyran-4-one]
IC50 ([2]; MCF7, 72 h): 7.7 nM
response vs control in vivo at 12.5 mg/kg ([3]; dose 12.5 mg/kg oral, judgement day 22): 18%
T/C ([4]; dose 12.5 mg/kg oral, judgement day 18): 0.24

SMILES: NCc1c(F)c(N)c2c(=O)cc(-c3ccc(N)c(F)c3)oc2c1F [Compound 41, 5-Amino-2-(4-amino-3-fluorophenyl)-7-aminomethyl-6,8-difluoro-4H-1-benzopyran-4-one]
IC50 ([2]; MCF7, 72 h): 26 nM
response vs control in vivo at 50 mg/kg ([3]; judgement day 18): 1.1%
MIC ([1]; pH 7): 3.26 µg/mL (≈ 9.72 µM)

SMILES: CN(C)CCCNc1c(F)c(N)c2c(=O)cc(-c3ccc(N)c(F)c3)oc2c1F [Compound 18, 5-Amino-2-(4-amino-3-fluorophenyl)-7-[3-(dimethylamino)propylamino]-6,8-difluoro-4H-1-benzopyran-4-one]
MIC [1, 6]: 52.1 µg/mL (≈ 128 µM)

SMILES: CN(C)CCOc1c(F)c(N)c2c(=O)cc(-c3ccc(N)c(F)c3)oc2c1F [Compound 9, 5-Amino-2-(4-amino-3-fluorophenyl)-7-(2-dimethylaminoethoxy)-6,8-difluoro-4H-1-benzopyran-4-one]
IC50 ([2]; MCF7, 72 h): 1400 nM
response vs control in vivo at 50 mg/kg ([3]; judgement day 15): 42%
MIC ([1]; pH 7): 52.1 µg/mL (≈ 132 µM)

SMILES: Nc1ccc(-c2cc(=O)c3c(N)c(F)c(CO)c(F)c3o2)cc1F [Compound 39, 5-Amino-2-(4-amino-3-fluorophenyl)-6,8-difluoro-7-hydroxymethyl-4H-1-benzopyran-4-one]
IC50 ([2]; MCF7, 72 h): 62 nM
response vs control in vivo at 50 mg/kg ([3]; judgement day 14): 1.6%

SMILES: CC(=O)OCc1c(F)c(N)c2c(=O)cc(-c3ccc(N)c(F)c3)oc2c1F [Compound 44, 7-Acetoxymethyl-5-amino-2-(4-amino-3-fluorophenyl)-6,8-difluoro-4H-1-benzopyran-4-one]
IC50 ([2]; MCF7, 72 h): 26 nM
response vs control in vivo at 25 mg/kg ([3]; dose 25 mg/kg oral, judgement day 14): 6.1%

SMILES: CC/C(=C(\c1ccccc1)c1ccc(OCCN(C)C)cc1)c1ccccc1 [Tamoxifen]
Weight of uterus ([5]; estradiol (+) (50 µg estradiol s.c.)): 47 mg
Weight of uterus ([5]; estradiol (-) (estradiol-untreated group)): 49 mg
anti-estrogenic activity (increase in the uterus weight observed in an estradiol-treated group) ([5]; result in words, estradiol-treated group, oral administration): weak anti-estrogenic activity
weight of the uterus in an estradiol-untreated group ([5]; result in words, estradiol-untreated group): significantly increases the weight of the uterus
response vs control in vivo at 5 mg/kg ([3]; dose 5 mg/kg oral, judgement day 22): 25%
T/C ([4]; dose 5 mg/kg oral, judgement day 25): 0.58

SMILES: CCc1cc(-c2cc(=O)c3c(N)c(F)c(C)c(F)c3o2)ccc1N [Compound 26, 5-Amino-2-(4-amino-3-ethylphenyl)-6,8-difluoro-7-methyl-4H-1-benzopyran-4-one]
IC50 [2, 7]: 65 nM

SMILES: CCOC(=O)c1c(F)c(N)c2c(=O)cc(-c3ccc(N)c(F)c3)oc2c1F [Compound 13, 5-Amino-2-(4-amino-3-fluorophenyl)-7-ethoxycarbonyl-6,8-difluoro-4H-1-benzopyran-4-one]
IC50 [2, 7]: 1400 nM

SMILES: CN(C)Cc1c(F)c(N)c2c(=O)cc(-c3ccc(N)c(F)c3)oc2c1F [Compound 42, Hydrochloride of 5-amino-2-(4-amino-3-fluorophenyl)-7-dimethylaminomethyl-6,8-difluoro-4H-1-benzopyran-4-one]
IC50 ([2]; MCF7, 72 h): 72 nM

SMILES: CCN(CC)CCCNc1c(F)c(C)c(F)c2oc(-c3ccc(N)c(F)c3)cc(=O)c12 [Compound 38, 2-(4-Amino-3-fluorophenyl)-5-[3-(diethylamino)propylamino]-6,8-difluoro-7-methyl-4H-1-benzopyran-4-one]
MIC [1, 6]: 13 µg/mL (≈ 30 µM)

SMILES: COc1c(F)c(N)c2c(=O)cc(-c3ccc(N)c(F)c3)oc2c1F [Compound 8, 5-Amino-2-(4-amino-3-fluorophenyl)-6,8-difluoro-7-methoxy-4H-1-benzopyran-4-one]
IC50 ([2]; MCF7, 72 h): 100 nM

Second part, led by results:

IC50 [2, 7]: 160 nM
SMILES: Nc1ccc(-c2cc(=O)c3c(N)c(F)c(Br)c(F)c3o2)cc1F [Compound 6, 5-Amino-2-(4-amino-3-fluorophenyl)-7-bromo-6,8-difluoro-4H-1-benzopyran-4-one]
response vs control in vivo at 50 mg/kg ([3]; judgement day 21): 54%

IC50 [2, 7]: 39 nM
SMILES: CN(C)c1c(F)c(N)c2c(=O)cc(-c3ccc(N)c(F)c3)oc2c1F [Compound 17, 5-Amino-2-(4-amino-3-fluorophenyl)-7-dimethylamino-6,8-difluoro-4H-1-benzopyran-4-one]
T/C ([4]; dose 25 mg/kg oral, judgement day 18): 0.22

IC50 [2, 7]: 220 nM
SMILES: Nc1ccc(-c2cc(=O)c3c(N)c(F)c(F)c(F)c3o2)cc1F [Compound 34, 5-Amino-2-(4-amino-3-fluorophenyl)-6,7,8-trifluoro-4H-1-benzopyran-4-one]

MIC [1, 6]: 13 µg/mL (≈ 37.3 µM)
SMILES: CC(=O)c1c(F)c(N)c2c(=O)cc(-c3ccc(N)c(F)c3)oc2c1F [Compound 22, 7-Acetyl-5-amino-2-(4-amino-3-fluorophenyl)-6,8-difluoro-4H-1-benzopyran-4-one]

IC50 [2, 7]: 130 nM
SMILES: CCc1c(F)c(N)c2c(=O)cc(-c3ccc(N)c(F)c3)oc2c1F [Compound 2, 5-Amino-2-(4-amino-3-fluorophenyl)-7-ethyl-6,8-difluoro-4H-1-benzopyran-4-one]

IC50 [2, 7]: 210 nM
SMILES: Nc1ccc(-c2cc(=O)c3c(N)c(F)c(Cl)c(F)c3o2)cc1F [Compound 5, 5-Amino-2-(4-amino-3-fluorophenyl)-7-chloro-6,8-difluoro-4H-1-benzopyran-4-one]

IC50 [2, 7]: 46 nM
SMILES: COCc1c(F)c(N)c2c(=O)cc(-c3ccc(N)c(F)c3)oc2c1F [Compound 43, 5-Amino-2-(4-amino-3-fluorophenyl)-6,8-difluoro-7-methoxymethyl-4H-1-benzopyran-4-one]

IC50 [2, 7]: 2500 nM
SMILES: C[S+]([O-])c1c(F)c(N)c2c(=O)cc(-c3ccc(N)c(F)c3)oc2c1F (centres unmarked) [Compound 11, 5-Amino-2-(4-amino-3-fluorophenyl)-6,8-difluoro-7-methylsulfinyl-4H-1-benzopyran-4-one]
